{
  "source": "PubChem BioAssay AID1745844",
  "about": "(Carcinogenic Potency Database (CPDB), 2022)",
  "system": "rodent lifetime carcinogenesis bioassay, tumor incidence TD50",
  "test": "carcinogenic potency in animals, long-term in vivo studies, CPDB compilation (AID 1745844)",
  "note": "Calls of active or inactive are those of the source. No rule for the calls is given here.",
  "data": [
    {"smiles": "CCCCC/C=N/N(C)C=O", "values": [
      {"measurement": "TD50", "setting": "mouse, strain Swiss, females, by gavage, site: liver, lesion: hepatocellular carcinoma, dosed 52 weeks, study length 122 weeks", "result": 180, "unit": "mg/kg/day"},
      {"measurement": "TD50", "setting": "mouse, strain Swiss, females, by gavage, site: liver, lesion: hepatoma, benign, dosed 52 weeks, study length 122 weeks", "result": 23.3, "unit": "mg/kg/day"},
      {"measurement": "TD50", "setting": "mouse, strain Swiss, females, by gavage, site: liver, lesion: several types, types named in the paper, dosed 52 weeks, study length 122 weeks", "result": 19.9, "unit": "mg/kg/day"},
      {"measurement": "TD50", "setting": "mouse, strain Swiss, females, by gavage, site: lung, lesion: adenocarcinoma, dosed 52 weeks, study length 122 weeks", "result": 8.73, "unit": "mg/kg/day"},
      {"measurement": "TD50", "setting": "mouse, strain Swiss, females, by gavage, site: lung, lesion: adenoma, dosed 52 weeks, study length 122 weeks", "result": 4.68, "unit": "mg/kg/day"},
      {"measurement": "TD50", "setting": "mouse, strain Swiss, females, by gavage, site: lung, lesion: several types, types named in the paper, dosed 52 weeks, study length 122 weeks", "result": 2.96, "unit": "mg/kg/day"},
      {"measurement": "TD50", "setting": "mouse, strain Swiss, males, by gavage, site: liver, lesion: hepatocellular carcinoma, dosed 52 weeks, study length 128 weeks", "result": 115, "unit": "mg/kg/day"},
      {"measurement": "TD50", "setting": "mouse, strain Swiss, males, by gavage, site: liver, lesion: hepatoma, benign, dosed 52 weeks, study length 128 weeks", "result": 45.4, "unit": "mg/kg/day"},
      {"measurement": "TD50", "setting": "mouse, strain Swiss, males, by gavage, site: liver, lesion: several types, types named in the paper, dosed 52 weeks, study length 128 weeks", "result": 31.4, "unit": "mg/kg/day"},
      {"measurement": "TD50", "setting": "mouse, strain Swiss, males, by gavage, site: lung, lesion: adenocarcinoma, dosed 52 weeks, study length 128 weeks", "result": 5.52, "unit": "mg/kg/day"},
      {"measurement": "TD50", "setting": "mouse, strain Swiss, males, by gavage, site: lung, lesion: adenoma, dosed 52 weeks, study length 128 weeks", "result": 6.63, "unit": "mg/kg/day"},
      {"measurement": "TD50", "setting": "mouse, strain Swiss, males, by gavage, site: lung, lesion: several types, types named in the paper, dosed 52 weeks, study length 128 weeks", "result": 1.92, "unit": "mg/kg/day"},
      {"measurement": "TD50", "setting": "mouse, strain Swiss, males, by gavage, site: preputial gland, lesion: several types, types named in the paper, dosed 52 weeks, study length 128 weeks", "result": 6.51, "unit": "mg/kg/day"},
      {"measurement": "TD50", "setting": "mouse, strain Swiss, males, by gavage, site: preputial gland, lesion: squamous-cell carcinoma, dosed 52 weeks, study length 128 weeks", "result": 8.03, "unit": "mg/kg/day"},
      {"measurement": "TD50", "setting": "mouse, strain Swiss, males, by gavage, site: preputial gland, lesion: squamous-cell papilloma, dosed 52 weeks, study length 128 weeks", "result": 93.3, "unit": "mg/kg/day"}
    ]},
    {"smiles": "CC(=O)C1C(=O)C=C(C)OC1=O", "note": "(stereo not drawn)", "values": [
      {"measurement": "carcinogen call", "setting": "mouse, strain B6AKF1, females, oral dosing, site: any site (literature study), lesion: several types, types named in the paper, dosed 76 weeks, study length 76 weeks", "result": "negative (inactive)"},
      {"measurement": "carcinogen call", "setting": "mouse, strain B6AKF1, females, oral dosing, site: liver, lesion: hepatoma, dosed 76 weeks, study length 76 weeks", "result": "negative (inactive)"},
      {"measurement": "carcinogen call", "setting": "mouse, strain B6AKF1, females, oral dosing, site: lung, lesion: adenoma, dosed 76 weeks, study length 76 weeks", "result": "negative (inactive)"},
      {"measurement": "carcinogen call", "setting": "mouse, strain B6AKF1, males, oral dosing, site: any site (literature study), lesion: several types, types named in the paper, dosed 76 weeks, study length 76 weeks", "result": "negative (inactive)"},
      {"measurement": "carcinogen call", "setting": "mouse, strain B6AKF1, males, oral dosing, site: liver, lesion: hepatoma, dosed 76 weeks, study length 76 weeks", "result": "negative (inactive)"},
      {"measurement": "carcinogen call", "setting": "mouse, strain B6AKF1, males, oral dosing, site: lung, lesion: adenoma, dosed 76 weeks, study length 76 weeks", "result": "negative (inactive)"},
      {"measurement": "carcinogen call", "setting": "mouse, strain B6C3F1, females, oral dosing, site: any site (literature study), lesion: one or several types, types not named, dosed 76 weeks, study length 76 weeks", "result": "negative (inactive)"},
      {"measurement": "carcinogen call", "setting": "mouse, strain B6C3F1, females, oral dosing, site: liver, lesion: hepatoma, dosed 76 weeks, study length 76 weeks", "result": "negative (inactive)"},
      {"measurement": "carcinogen call", "setting": "mouse, strain B6C3F1, females, oral dosing, site: lung, lesion: several types, types named in the paper, dosed 76 weeks, study length 76 weeks", "result": "negative (inactive)"},
      {"measurement": "TD50", "setting": "mouse, strain B6C3F1, males, oral dosing, site: any site (literature study), lesion: several types, types named in the paper, dosed 76 weeks, study length 76 weeks", "result": "202 mg/kg/day (inactive)"},
      {"measurement": "carcinogen call", "setting": "mouse, strain B6C3F1, males, oral dosing, site: liver, lesion: hepatoma, dosed 76 weeks, study length 76 weeks", "result": "negative (inactive)"},
      {"measurement": "carcinogen call", "setting": "mouse, strain B6C3F1, males, oral dosing, site: lung, lesion: several types, types named in the paper, dosed 76 weeks, study length 76 weeks", "result": "negative (inactive)"}
    ]},
    {"smiles": "CCNc1nc(Cl)nc(NC(C)(C)C#N)n1", "values": [
      {"measurement": "TD50", "setting": "rat, strain Charles River CD (Sprague-Dawley), females, in feed, site: liver, lesion: hepatocellular adenoma, dosed 105 weeks, study length 105 weeks", "result": 280, "unit": "mg/kg/day"},
      {"measurement": "TD50", "setting": "rat, strain Charles River CD (Sprague-Dawley), females, in feed, site: mammary gland, lesion: adenocarcinoma, dosed 105 weeks, study length 105 weeks", "result": 6.65, "unit": "mg/kg/day"},
      {"measurement": "TD50", "setting": "rat, strain Charles River CD (Sprague-Dawley), females, in feed, site: mammary gland, lesion: benign tumor, dosed 52 weeks, study length 52 weeks", "result": 8.77, "unit": "mg/kg/day"},
      {"measurement": "TD50", "setting": "rat, strain Charles River CD (Sprague-Dawley), females, in feed, site: mammary gland, lesion: carcinosarcoma, dosed 105 weeks, study length 105 weeks", "result": 140, "unit": "mg/kg/day"},
      {"measurement": "TD50", "setting": "rat, strain Charles River CD (Sprague-Dawley), females, in feed, site: mammary gland, lesion: fibroadenoma, dosed 52 weeks, study length 52 weeks", "result": 3.03, "unit": "mg/kg/day"},
      {"measurement": "TD50", "setting": "rat, strain Charles River CD (Sprague-Dawley), females, in feed, site: mammary gland, lesion: malignant tumor, dosed 105 weeks, study length 105 weeks", "result": 6.33, "unit": "mg/kg/day"},
      {"measurement": "TD50", "setting": "rat, strain Charles River CD (Sprague-Dawley), females, in feed, site: mammary gland, lesion: several types, types named in the paper, dosed 105 weeks, study length 105 weeks", "result": 22.9, "unit": "mg/kg/day"},
      {"measurement": "carcinogen call", "setting": "rat, strain Charles River CD (Sprague-Dawley), males, in feed, site: liver, lesion: hepatocellular adenoma, dosed 104 weeks, study length 104 weeks", "result": "negative (inactive)"},
      {"measurement": "carcinogen call", "setting": "rat, strain Charles River CD (Sprague-Dawley), males, in feed, site: liver, lesion: one or several types, types not named, dosed 52 weeks, study length 52 weeks", "result": "negative (inactive)"}
    ]},
    {"smiles": "O=C(O)O", "values": [
      {"measurement": "TD50", "setting": "mouse, strain B6C3F1, males, in drinking water, site: liver, lesion: hepatocellular adenoma, dosed 52 weeks, study length 52 weeks", "result": "1330 mg/kg/day (inactive)"},
      {"measurement": "TD50", "setting": "rat, strain F344/DuCrj, males, in feed, site: urinary bladder, lesion: carcinoma, dosed 104 weeks, study length 104 weeks", "result": "5350 mg/kg/day (inactive)"},
      {"measurement": "TD50", "setting": "rat, strain Wistar-random, females, in feed, site: urinary bladder, lesion: several types, types named in the paper, dosed 130 weeks, study length 130 weeks", "result": 12800, "unit": "mg/kg/day"},
      {"measurement": "TD50", "setting": "rat, strain Wistar-random, females, in feed, site: urinary bladder, lesion: transitional-cell carcinoma, dosed 130 weeks, study length 130 weeks", "result": 37100, "unit": "mg/kg/day"},
      {"measurement": "TD50", "setting": "rat, strain Wistar-random, females, in feed, site: urinary bladder, lesion: transitional-cell papilloma, dosed 78 weeks, study length 78 weeks", "result": 8280, "unit": "mg/kg/day"},
      {"measurement": "TD50", "setting": "rat, strain Wistar-random, females, in feed, site: urinary bladder, lesion: transitional-cell papilloma, dosed 130 weeks, study length 130 weeks", "result": 20700, "unit": "mg/kg/day"},
      {"measurement": "TD50", "setting": "rat, strain Wistar-random, males, in feed, site: urinary bladder, lesion: several types, types named in the paper, dosed 78 weeks, study length 78 weeks", "result": 6400, "unit": "mg/kg/day"},
      {"measurement": "TD50", "setting": "rat, strain Wistar-random, males, in feed, site: urinary bladder, lesion: several types, types named in the paper, dosed 121 weeks, study length 121 weeks", "result": 13200, "unit": "mg/kg/day"},
      {"measurement": "TD50", "setting": "rat, strain Wistar-random, males, in feed, site: urinary bladder, lesion: transitional-cell carcinoma, dosed 78 weeks, study length 78 weeks", "result": 12900, "unit": "mg/kg/day"},
      {"measurement": "TD50", "setting": "rat, strain Wistar-random, males, in feed, site: urinary bladder, lesion: transitional-cell carcinoma, dosed 121 weeks, study length 121 weeks", "result": 54400, "unit": "mg/kg/day"},
      {"measurement": "TD50", "setting": "rat, strain Wistar-random, males, in feed, site: urinary bladder, lesion: transitional-cell papilloma, dosed 78 weeks, study length 78 weeks", "result": 13100, "unit": "mg/kg/day"},
      {"measurement": "TD50", "setting": "rat, strain Wistar-random, males, in feed, site: urinary bladder, lesion: transitional-cell papilloma, dosed 121 weeks, study length 121 weeks", "result": 17800, "unit": "mg/kg/day"}
    ]}
  ]
}
